Laboratory results as given in publication PMC8191380 (Nucleosides, nucleotides & nucleic acids, 2019).
Where two headings read alike, the source gives them in different places.

How the values were obtained:
HBV [1] = experiment: Anti-HBV assay in HBV-producing HepG2 2.2.15 cells; format: cell-based, Hepatitis B virus; conditions: read-out: EC50 (50% effective concentration; concentration that inhibits 50% of virus replication)
[2] = Cytotoxicity in MT-2 cells; format: cell-based; conditions: human
MT-2 cells = experiment: Cytotoxicity in MT-2 cells; format: cell-based; conditions: for CC50: read-out: CC50 (50% cytotoxic concentration)
HBV [3] = conditions: read-out: anti-HBV activity EC50; cited from earlier work
HBV [4] = conditions: cited from earlier work; for EC50: read-out: anti-HBV activity EC50
HIV-1 = conditions: cited from earlier work
wild-type HBV = conditions: cited from earlier work
entecavir-resistant HBV = conditions: cited from earlier work
HIV [5] = conditions: cited from earlier work
[6] = cited from earlier work
HIV [7] = conditions: read-out: anti-HIV activity EC50; reported in 1992; cited from earlier work
HBV [8] = conditions: read-out: anti-HBV activity EC50; cited from earlier work; remark: listed apart in the source
[9] = Hepatitis B virus, HepG2 2.2.15, 336 h
[10] = HepG2 2.2.15 cells, day 14, HBV DNA

With `C=C1[C@H](CO)[C@@H](O)C[C@@H]1n1cnc2c(=O)[nH]c(N)nc21` [Entecavir] the EC50 (HBV [1]; [9]) was 0.00675 ± 0.000353 µM and the CC50 [2] was 57.2 ± 5.2 µM.

In the case of `COc1nc(=O)n(C2CC(O)C(CO)(N=[N+]=[N-])O2)cc1C` (stereo not shown) [Compound 11, 4′-Azido-O^4-methylthymidine], the EC50 (HBV [1]; [10]) is reported as greater than 100 µM and the CC50 (MT-2 cells) is reported as greater than 100 µM.

With `Cc1cn([C@H]2C[C@H](O)[C@](CO)(N=[N+]=[N-])O2)c(=O)nc1NC1CC1` [Compound 15, 4′-Azido-N′-cyclopropyl-2′-deoxy-5-methylcytidine] the EC50 (HBV [1]; [10]) was greater than 100 µM and the CC50 (MT-2 cells) was greater than 100 µM.

For `[N-]=[N+]=N[C@]1(CO)O[C@@H](n2ccc(N)nc2=O)[C@H](F)[C@@H]1O` [Compound 5, 2′-deoxy-2′-P-fluoro-4′-azido cytidine], the EC50 (HBV [3]) is listed as 0.12 µM.

In the case of `[N-]=[N+]=N[C@]1(CO)O[C@@H](n2cnc3c(=O)[nH]c(N)nc32)C[C@@H]1O` [Compound 3, 4′-azido-2′-deoxyguanosine], the “potency against HBV (in words)” value (HBV [4]) is given as “highly potent”, the EC50 (HBV [4]) is given as 0.0097 µM and the “potency against HIV-1 (in words)” value (HIV-1) is given as “highly potent”.

With `Cc1cn([C@H]2C[C@H](O)[C@](CO)(N=[N+]=[N-])O2)c(=O)nc1N` [Compound 10, 4′-Azido-2′-deoxy-5-methylcytidine] the EC50 (HBV [1]; [9]) was 5.99 ± 5.54 µM, the CC50 [2] was greater than 100 µM and the “no cytotoxicity up to (concentration)” value (MT-2 cells) was greater than 100 µM.

In the case of `N#C[C@]1(CO)O[C@@H](n2cnc3c(N)nc(N)nc32)C[C@@H]1O` [Compound 2, 4′-cyano-2-amino-2′-deoxyadenosine], the “replication of wild-type HBV (in words)” value (wild-type HBV) is given as “block the replication”, the “replication of entecavir-resistant HBV (in words)” value (entecavir-resistant HBV) is given as “block the replication” and the “anti-HIV activity (in words)” value (HIV [5]) is given as “potent anti-HIV activity”.

In the case of `[N-]=[N+]=N[C@]1(CO)O[C@@H](n2ccc(N)nc2=O)C[C@@H]1O` [4′-azido-2′-deoxycytidine], the “cytotoxicity CC25” value [6] is given as 0.21 µM.

With `CCNc1nc(=O)n([C@H]2C[C@H](O)[C@](CO)(N=[N+]=[N-])O2)cc1C` [Compound 14, 4′-Azido-2′-deoxy-N^4-ethyl-5-methylcytidine] the EC50 (HBV [1]; [9]) was greater than 100 µM and the CC50 [2] was greater than 100 µM.

For `Cc1cn([C@H]2C[C@H](O)[C@](CO)(N=[N+]=[N-])O2)c(=O)[nH]c1=O` [Compound 6, 4′-azido thymidine], the EC50 (HBV [1]; [9]) was 0.63 ± 0.29 µM, the CC50 [2] was greater than 100 µM and the “no cytotoxicity up to (concentration)” value (MT-2 cells) was greater than 100 µM. The EC50 (HIV [7]) was 0.01 µM.

For `[N-]=[N+]=N[C@]1(CO)O[C@@H](n2cnc3c(N)nc(N)nc32)C[C@@H]1O` [Compound 4, 4′-azido-2-amino-2′-deoxyadenosine], the “potency against HBV (in words)” value (HBV [4]) is listed as “highly potent”, the EC50 (HBV [4]) is listed as 0.0051 µM and the “potency against HIV-1 (in words)” value (HIV-1) is listed as “highly potent”.

For `CNc1nc(=O)n([C@H]2C[C@H](O)[C@](CO)(N=[N+]=[N-])O2)cc1C` [Compound 13, 4′-Azido-2′-deoxy-N4,5-dimethylcytidine], the EC50 (HBV [1]; [9]) was greater than 100 µM and the CC50 [2] was greater than 100 µM.

For `CCOc1nc(=O)n([C@H]2C[C@H](O)[C@](CO)(N=[N+]=[N-])O2)cc1C` [Compound 12, 4′-Azido-O^4-ethylthymidine], the EC50 (HBV [1]; [10]) was greater than 100 µM and the CC50 (MT-2 cells) was greater than 100 µM.

In the case of `Cc1cn([C@H]2C[C@H](F)[C@@H](CO)O2)c(=O)nc1N` [Compound 8, FddMeC], the EC50 (HBV [8]) is given as 0.54 µM.

For `N#C[C@]1(CO)O[C@@H](n2cnc3c(=O)[nH]c(N)nc32)C[C@@H]1O` [Compound 1, 4′-cyano-2′-deoxyguanosine], the “replication of wild-type HBV (in words)” value (wild-type HBV) is listed as “block the replication”, the “replication of entecavir-resistant HBV (in words)” value (entecavir-resistant HBV) is listed as “block the replication” and the “anti-HIV activity (in words)” value (HIV [5]) is listed as “potent anti-HIV activity”.
